Measurements: US9440914B2, “Method for treating glioblastomas and other tumors” (THE FEINSTEIN INSTITUTE FOR MEDICAL RESEARCH, priority 2013, dated 2016)

How the values were obtained:
[1] = tested on: GL261 cells with microglia; assay: concentration dependence on microglia-stimulated invasion of glioma cells (24-well transwell); type: cell-based; conditions: GL261 3×10^5, microglia 1.5×10^5, 48 h
Procedure: FIG. 11. […] GL261 cells (3×10^5) and microglia (1.5×10^5) were embedded in 50 μl of basement membrane extract in the presence of the indicated concentrations of semapimod (SMP) and CP1213, layered in a 24-well transwell and incubated for 48 h. The number of invading GL261 cells was determined. Data shown represent the average+/−SD of between 2 and 5 independent experiments, each performed in duplicate.
The concentration dependence of the inhibitory effect of semapimod or CP1213 was investigated on microglia-stimulated invasion of glioma cells. GL261 cells (3×10^5) and microglia (1.5×10^5) were embedded in 50 μl of basement membrane extract in the presence of the indicated concentrations of semapimod (SMP) and CP1213, layered in a 24-well transwell and incubated for 48 h. The number of invading GL261 cells was determined. Data are shown in FIG. 11 and represent the average+/−SD of between 2 and 5 independent experiments, each performed in duplicate. The data support a method of treating a glioma, by inhibiting microglia-stimulated invasion processes with guanylhydrazones.

GL261 cells = assay: colony formation assay of GL261 with or without microglia and irradiation; type: cell-based, murine; conditions: 200 nM; for effect on microglia-stimulated GL261 survival (colony formation): co-culture with microglia
Procedure: Colony Formation Assay: G1261 cells and microglia were labeled as described for the invasion assay and were co-cultured in serum overnight and then changed to serum free medium for 48 h in the absence of serum at a 1:1 ratio at a density of 5×10^5 per well of a 6-well plate in the presence or absence of 200 nM semapimod. Subsequently, cells were subjected to 3 Gy of X-ray irradiation using a Radionics 160 kV irradiator. Two days after irradiation, cells were trypsinized, counted using a fluorescence microscope and 500 GL261 cells were plated in 6 cm dishes containing 10% FBS MSFM medium. Colony formation was allowed to proceed for 12 days, with medium changes every other day. Subsequently, the cells were fixed in 3.7% formaldehyde in PBS and stained with 0.2% (w/v) sulpharhodamine B (SRB) dye in 1% acetic acid for 20 min. The dishes were washed with 1% glacial acetic acid and allowed to dry. Plates were scanned and processed using Photoshop 5 (Adobe). Images were changed to grayscale and background threshold intensity was set. Colonies were counted automatically by Image J (rsbweb.nih.gov/ij/) and the numbers graphed.
Semapimod inhibits microglia-stimulated glioblastoma cell survival: A critical problem of malignant glioblastoma is its strong resistance to ionizing radiation (IR) and other therapeutic modalities (21). The role of microglia in glioblastoma cell survival has not been studied thus far. It was therefore examined whether microglia can enhance the survival of GL216 cells after IR and whether semapimod interferes with this function. GL261 cells were plated either in the presence or absence of microglia with or without semapimod (200 nM) for 2 days, followed by radiation treatment (3 Gy). Two days later, glioblastoma cell viability was assayed using a standard colony formation assay. […] In the presence of radiation, the stimulatory effect of microglia on glioblastoma cell survival is more marked (50%) and this effect is also abolished by semapimod (FIG. 2B).

GL261 tumors = assay: orthotopic GL261 glioblastoma model in syngeneic C57Bl/6 mice, intracranial delivery by osmotic pump; type: in vivo, C57BL/6J mice
Procedure: Animal Experiments: All procedures involving mice were conducted in accordance with the National Institutes of Health regulations concerning the use and care of experimental animals. The study of mice was approved by the Institutional Animal Care and Use Committee (IACUC) of the Feinstein Institute. First, 8 week old male C57BL/6J mice were inoculated in the right caudate putamen with GL261 cells. Briefly, animals were placed in a stereotactic frame after pre-anesthesia exposure in a box of 5% isoflurane. Deep anesthesia was maintained on the frame at approximately 2% isoflurane and 2% O2. A burr hole was drilled 1 mm anterior and 2.5 mm to the right of the bregma. With the aid of the stereotactic frame, GL261 cells (2×10^4 cells suspended in 1 μL) were injected with a Hamilton syringe at a depth of 3 mm over a one min time period. Subsequently, the syringe was left in place for 1 min to prevent reflux.
Seven days after implantation of the GL261 cells, an osmotic pump (Alzet, Durect) filled with either 0.42 mg/ml solution of semapimod or vehicle was implanted in a subcutaneous pocket on the dorsal flank of the animal. A catheter with attached cannula delivered the drug intracranially over a period of 2 weeks, at a steady rate of 0.25 μl/h, which is equivalent to a dose of […], assuming no blood-brain barrier permeability of the drug. Starting one day after pump implantation, animals were given 2 Gy whole brain irradiation every other day over a period of 10 days (10 Gy total).
Brains from mice-bearing tumors were frozen on dry ice and stored at −80° C. until processing. The brain was sliced using a cryostat at −20° C. at a thickness of 40 μm (for tumor sizing) or 8 μm for immunohistochemistry. Slices were placed on pre-coated poly-1-lysine slides (Superfrost, Fisher) and fixed in 3.7% formaldehyde in PBS. Sections were stained with Harris-modified haematoxilin solution. Activated microglia were visualized with an Iba1 antibody (Wako). Tumor cell invasion was determined by counting the number of Ki67 (Millipore) positive nuclei located beyond the tumor border. The border was outlined by determining where the bulk of the tumor material was found by Ki67 staining Tumor size was determined as the area of the largest cross section of the tumor, multiplied by the depth of the tumor.
The cell density of the tumor was calculated by counting the total number of cells in 10 fields taken over different sections and multiplying the tumor area by the thickness of the slice (8 μm) to obtain total number of cells in a tumor section. This was then divided by the volume of the tumor section to obtain the number of cells per unit volume. To obtain the total number of cells in a tumor, the cell density was multiplied by the calculated volume of the tumor.
Animals were inoculated with 2×10^4 GL261 cells into the right caudate putamen. To deliver semapimod, an osmotic pump was used that was implanted subcutaneously in the dorsal flank of the animal and fed a transcranial cannula that was inserted into the tumor. In order to mimic a therapeutic setting, tumors were allowed to develop for 1 week before the onset of treatment. To score tumor cell invasion, brain sections were probed for the presence of proliferative antigen Ki67. […] Whereas control tumors display diffuse edges and extensive tumor cell invasion into the surrounding parenchyma, semapimod-treated tumors have a sharply demarcated border (FIG. 4A).

[2] = two weeks after tumor cell inoculation

Structure (SMILES): C/C(=N\NC(=N)N)c1cc(NC(=O)CCCCCCCCC(=O)Nc2cc(/C(C)=N/NC(=N)N)cc(/C(C)=N/NC(=N)N)c2)cc(/C(C)=N/NC(=N)N)c1 [semapimod]
- effect on microglia-stimulated invasion of GL261 glioma cells (concentration dependence) [1]: inhibitory effects
- effect on microglia-stimulated GL261 survival (colony formation) (GL261 cells; 3 Gy radiation): abolished
- effect on microglia-stimulated GL261 survival (colony formation) (GL261 cells; absence of radiation): abolishes
- effect on survival potential of glioblastoma cell monocultures (GL261 cells; no microglia): does not affect
- median survival (GL261 tumors; absence of radiation, controls 20 days, not significant): 22 days
- number of Iba1+ microglia per tumor area (GL261 tumors; equivalent to 6 mg/kg/day intracranially, 1 week): No significant difference
- inhibition of tumor cell invasion in vivo (Ki67-positive cells beyond tumor border) (GL261 tumors; equivalent to 6 mg/kg/day intracranially, 1 week, start 7 days after inoculation): more than 75%
- tumor cell density (GL261 tumors; [2]): small but significant increase
- tumor size (volume) (GL261 tumors; [2]): robust inhibition
- estimated total number of cells in tumor (GL261 tumors; two weeks after tumor cell inoculation, versus control tumors): significantly less
- tumors by histological analysis in surviving animals (GL261 tumors; with 10 Gy fractionated whole brain irradiation): no detectable tumors
- survival beyond the median survival time of control animals (GL261 tumors; with 10 Gy fractionated whole brain irradiation, most of the animals): at least 40 days
